According to US20110129455A1, “INHIBITORS OF AKT ACTIVITY” (priority 2008, published 2011):

Biological target: T1, full length AKT1 (Homo sapiens, UniProt P31749)
T1 construct: Full-length human AKT1 gene was amplified by PCR; His tag (from vector pFastBacHTb; N-terminal position is own knowledge of the vector) (N); made in house; host or cells: baculovirus; Sf9 / T. ni insect cells
Test: Full-length AKT enzyme assay (substrate phosphorylation, SPA)
Assay type: biochemical
Conditions: in at least one experimental run; pIC50 = -log(IC50), IC50 in molar units; 4 uM ATP, 10 nM activated AKT enzyme; read-out: pIC50 against full length AKT1 (converted)
Description: Cloning of Full-Length Human (FL) AKT1:
Full-length human AKT1 gene was amplified by PCR from a plasmid containing myristylated-AKT1-ER (gift from Robert T. Abraham, Duke University under MTA, described in Klippel et al. in Molecular and Cellular Biology 1998 Volume 18 p. 5699) using the 5′ primer: SEQ. ID NO: 2
5′ […] 3′ and the 3′ primer: SEQ. ID NO: 3 […] 3′. The 5′ primer included a BamHl site and the 3′primer included an Xhol site for cloning purposes. The resultant PCR product was subcloned in pcDNA3 as a BamHl/Xhol fragment. A mutation in the sequence (TGC) coding for a Cysteine^25 was converted to the wild-type AKT1 sequence (CGC) coding for an Arginine^25 by site-directed mutagenesis using the QuikChange® Site Directed Mutagenesis Kit (Stratagene). The AKT1 mutagenic primer: SEQ. ID NO: 4 5′ […] and selection primer: SEQ. […] For expression/purification purposes, AKT1 was isolated as a BamHl/Xhol fragment and cloned into the BamHl/Xhol sites of pFastbacHTb (Invitrogen).
Expression was done using the BAC-to-BAC Baculovirus Expression System from Invitrogen (catalog #10359-016). […]
Compounds of the present invention were tested for AKT 1, 2, and 3 protein serine kinase inhibitory activity in substrate phosphorylation assays. […] Substrate phosphorylation was detected by the following procedure. […]

T1 sequence (P31749 whole entry): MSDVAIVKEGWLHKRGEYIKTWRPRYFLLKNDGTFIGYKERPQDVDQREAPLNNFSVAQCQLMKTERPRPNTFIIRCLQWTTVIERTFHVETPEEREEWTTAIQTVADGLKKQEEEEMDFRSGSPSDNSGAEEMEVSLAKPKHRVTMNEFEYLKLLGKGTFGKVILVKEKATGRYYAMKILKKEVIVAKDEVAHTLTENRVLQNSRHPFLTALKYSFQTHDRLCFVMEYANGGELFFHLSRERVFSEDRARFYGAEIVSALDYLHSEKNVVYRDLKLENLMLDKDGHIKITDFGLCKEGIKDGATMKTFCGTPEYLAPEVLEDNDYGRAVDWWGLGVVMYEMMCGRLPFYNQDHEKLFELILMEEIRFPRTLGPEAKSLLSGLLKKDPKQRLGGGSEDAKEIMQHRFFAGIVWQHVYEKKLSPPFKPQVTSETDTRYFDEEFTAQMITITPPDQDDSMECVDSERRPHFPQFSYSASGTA

Cn1nccc1-n1cc(C(=O)N[C@H](CN)Cc2cccc(F)c2)cc1Cl [Example 2, N-{(1S)-2-amino-1-[(3-fluorophenyl)methyl]ethyl}-5-chloro-1-(1-methyl-1H-pyrazol-5-yl)-1H-pyrrole-3-carboxamide]
IC50: 6.31 nM
